Here are results for two compounds from patent US4769250A, “Antracycline antineoplastic agents encapsulated in phospholipid vesicle particles and methods for using same for tumor therapy” (priority 1987, dated 1988).

Data set [1] can be described thus: toxicity determined by survival in tumor-bearing mice. The class given is in vivo.
The test system of data set [2] is P-1798 solid lymphosarcoma. Put plainly: single dose chemotherapeutic efficacy, intradermal P-1798 solid lymphosarcoma. Format: in vivo, mice. The note with it: 20 mg/kg single dose. How it is done:
In the first investigation, groups of 10 mice received free daunorubicin or daunorubicin-vesicles in 20 mg/kg single doses at three or four days following tumor implantation. Tumors were measured using calipers and the survival over time of treated and control mice was recorded. Controls consisted of injections of a 5% dextrose in water solution at 2 ml/20 gm doses.
Representative results of these investigations are shown in FIG. 5 for treatment commencing on day 3 after tumor implantation. Typically, with tumor metastasis, mice with tumors die within 14-17 days. […] The median life span of mice injected with daunorubicin-vesicles was 21 days.

For data set [3] the following is noted: binding to distearoyl phosphatidylglycerol; read-out: binding constant; cited from earlier work.
The target in data set [4] is DNA. The settings on record: binding to DNA; read-out: affinity for binding to DNA in a cell (converted); cited from earlier work.
For data set [5] the following is noted: children highly susceptible (Mosijezuk et al.); cited from earlier work.

On to `COc1cccc2c1C(=O)c1c(O)c3c(c(O)c1C2=O)C[C@@](O)(C(C)=O)C[C@@H]3O[C@H]1C[C@H](N)[C@H](O)[C@H](C)O1` [daunorubicin], for which, in data set [1] (10, 20 and 30 mg/kg), the “toxicity induced deaths by dose” value is reported as “toxicity induced deaths occurred only for the high dose unencapsulated daunorubicin (30 mg/kg)”. The mortality in data set [1] (mouse, in vivo, 30 mg/kg, read-out: toxicity induced deaths) worked out at 100%. Moreover, in data set [2], the “inhibition of tumor growth vs untreated controls” value is recorded as “significant inhibition of tumor growth”. For the same compound, the Kd in data set [3] was roughly 10 µM; in data set [4] it was roughly 0.5 µM.
Regarding `COc1cccc2c1C(=O)c1c(O)c3c(c(O)c1C2=O)C[C@@](O)(C(=O)CO)C[C@@H]3O[C@H]1C[C@H](N)[C@H](O)[C@H](C)O1` [doxorubicin], the cardiotoxicity result in data set [5] is given as “congestive heart failure”.
